Peptide text beside a SMILES is read from it.
System: THP-1 cells
Assay type: cell-based, human
Description: The ability of [SRSRY] peptide to affect THP-1 cell migration was analyzed in Boyden chambers using 10 nM fMLF or 10 nM SRSRY as chemoattractants. […] Inhibitory effect of [SRSRY] is dose-dependent, it starts in the high fM range, it seems to level off in the μM range and reaches an overall 50% reduction at 10 pM (Fig 4B). […] The mechanisms by which monocytes move when subjected to a chemoattractant gradient, involve changes in cytoskeletal organization, which provide both protrusive and contractile forces necessary for cell migration. To gain some insights into the cellular effects exerted by peptide [SRSRY], PMA-differentiated THP-1 cells were grown adherent onto a glass slide, exposed to diluents (CTL), 10 nM fMLF gradient plus/minus 10 nM [SRSRY] or 10 nM [RSSYR] in a DUNN chamber for 6 hours as described, and then stained with rhodamine-phalloidin. A total of 100 cells/sample that translocated to the area corresponding to the ring separating the inner and outer chambers were counted and their cytoskeletal organization examined with a fluorescence-inverted microscope. […] Conversely, the addition of peptide [SRSRY] to the fMLF gradient reduced cell elongation and alignment with the appearance of F-actin linear distribution along the plasma membranes in the 60% of cell population (Fig 4C). In order to verify whether the inhibitory effect of [SRSRY] also occurs on primary monocytes and/or macrophages, human monocytes and macrophages were subjected to cell migration assays in Boyden and DUNN chambers, respectively. […] Unlike [RSSYR], 10 nM [SRSRY] reduced both fMLF- and SRSRY- directed monocyte migration by 50% and 49%, respectively. Next, primary macrophages were subjected to cell migration assay in DUNN chamber as above described. After 6 hours incubation, a total of 100 cells/sample that translocated to the area corresponding to the ring separating the inner and outer chambers were counted. Macrophage exposure to 10 nM fMLF elicited a considerable cell migration, reaching 230% of the basal cell migration (CTL), that was unchanged by 10 nM [[…]). […] These findings indicate that unlike linear SRSRY, the cyclic form of the chemotactic sequence of uPAR inhibits monocyte motility and prevents cytoskeletal re-organization occurring during migration of macrophages. {[…]] inhibits migration of monocytes and macrophages in a dose-dependent manner causing a marked inhibition of fMLF-dependent cytoskeletal re-organization. A. THP-1 cells (1x10^5 cells/well) were allowed to migrate for 90 minutes at 37°C, 5% CO2 in Boyden chambers toward 10 nM fMLF, or 10 nM SRSRY in the presence of diluents (None), 10 nM [RSSYR] or 10 nM [SRSRY]. […] Data are expressed as the means ± SD of three independent experiments, performed in duplicate. *Statistical significance against None with p<0.001. B. THP-1 and PMA-stimulated THP-1 cell migration toward 10 nM fMLF plus increasing concentrations of [SRSRY] in Boyden chambers. The extent of cell migration was expressed as a percentage of the net fMLF-dependent cell migration, considered as 100%. Data are expressed as the means ± SD of three independent experiments, performed in duplicate. C. Representative images of PMA-stimulated THP-1 cells allowed to migrate in a DUNN chamber toward diluents (CTL), or a fMLF chemotactic gradient, in the absence (None) or presence of 10 nM [SRSRY] or [RSSYR] peptides and stained with rhodamine-phalloidin. Scale bar: 10 μm. Original magnifications: 630x. D-E. Primary monocytes (1x10^5 cells/well) were allowed to migrate for 90 minutes at 37°C, 5% CO2 in Boyden chambers toward 10 nM fMLF (D), or 10 nM […]) in the presence of diluents (None), 10 nM [RSSYR] or 10 nM [SRSRY]. […] Data are expressed as the means ± SD of three independent experiments, performed in duplicate. *Statistical significance against None with p<0.001; **Statistical significance against None with p<0.0001. […]

[1] = 10 nM peptide, 90 minutes, Boyden chamber

N=C(N)NCCC[C@@H]1NC(=O)[C@H](CO)NC(=O)[C@H](Cc2ccc(O)cc2)NC(=O)[C@H](CCCNC(=N)N)NC(=O)[C@H](CO)NC1=O [[SRSRY], [Ser-Arg-Ser-Arg-Tyr]] (cyclo(RSRYS))
reduction of THP-1 monocyte migration toward 10 nM SRSRY [1]: 68%
reduction of THP-1 monocyte migration toward 10 nM fMLF [1]: 58%
IC50 (6 h): 0.01 nM

— paper PMC4418665, “Cyclization of the Urokinase Receptor-Derived Ser-Arg-Ser-Arg-Tyr Peptide Generates a Potent Inhibitor of Trans-Endothelial Migration of Monocytes” (PLoS ONE, 2015)
